{
  "source": "patent US20190209501A1",
  "about": "“COMPOSITIONS AND METHODS OF USE OF BETA-HYDROXY-BETA-METHYLBUTYRATE (HMB) […] IN[…]” (Texas Tech University Office of Research Commercialization, priority 2018, published 2019)",
  "test": "1-repetition maximum and repetitions to failure, bench press and hip sled (leg press)",
  "assay_type": "in vivo, human",
  "details": "for 1RMBP (kg) Week 4 / 1RMBP (kg) Week 8: 1-repetition maximum bench press; for 1RMBP (kg) Week 4 / 1RMBP (kg) Week 8 / 1RMLP (kg) Week 8 / RTFBP (reps) Week 4 / RTFBP (reps) Week 8 / RTFLP (reps) Week 8: mean ± SE; for 1RMLP (kg) Week 8: 1-repetition maximum leg press; for 1RMBP Δ (%) / 1RMLP Δ (%) / RTFBP Δ (%) / RTFLP Δ (%): change baseline to week 8 relative to baseline; for RTFBP (reps) Week 4 / RTFBP (reps) Week 8: repetitions to failure bench press; for RTFBP (reps) Week 4 / RTFBP (reps) Week 8 / RTFLP (reps) Week 8: 70% of baseline 1-RM; for RTFLP (reps) Week 8: repetitions to failure leg press; for 1RMBP (kg) Δ / 1RMLP (kg) Δ / RTFBP (reps) Δ / RTFLP (reps) Δ: week 8 minus baseline",
  "excerpt": "Assessments of muscular performance took place between 12:00 and 18:00 in the non-fasted state, and participants were instructed to follow their preferred food and fluid intake patterns prior to testing. The assessment began with a 5-minute warm up period using a self-selected pace on a stationary bicycle. This warm up period was followed by assessment of countermovement vertical jumps (CMVJ) performance, testing on a mechanized squat device, and muscular strength and endurance assessment on the bench press and hip sled exercises. At the 4-week assessment, the CMVJ and hip sled assessments were not performed.\nResistance exercise performance for the bench press and hip sled exercises was evaluated via the 1-repetition maximum (1RM) and repetitions to failure with 70% of the 1RM. The 1RM testing protocol was based on the recommendations of the National Strength and Conditioning Association (33). Briefly, after completing warm up sets, participants completed 2 to 3 repetitions using a load estimated to be near-maximal. 1RM attempts then commenced, with the goal of obtaining the 1RM in between 3 and 5 attempts. Three minutes of rest were allowed between attempts. The maximal weight lifted with proper form was recorded as the 1RM. After the 1RM was obtained, a 3-minute rest period was allowed before repetitions to failure (RTF) were completed using 70% of the 1RM. For all participants, the bench press was tested before the leg press in order to allow for recovery of the lower body following the mechanized squat testing.",
  "key": {"[1]": {"details": "ITT analysis, Cohen's d baseline vs week 8"}, "[2]": {"details": "PP analysis, Cohen's d baseline vs week 8"}},
  "data": [
    {"compound": "CC(C)(O)CC(=O)O", "note": "[TRFHMB, β-hydroxy-β-methylbutyrate]", "values": [
      {"measurement": "1RMBP (kg) Week 4", "setting": "ITT analysis", "value": "42.3 ± 2.4", "unit": "kg"},
      {"measurement": "1RMBP (kg) Week 8", "setting": "ITT analysis", "value": "47.3 ± 2.5", "unit": "kg"},
      {"measurement": "1RMLP (kg) Week 8", "setting": "ITT analysis", "value": "205.2 ± 15.0", "unit": "kg"},
      {"measurement": "1RMLP ES (d)", "setting": "[1]", "value": 1.65},
      {"measurement": "RTFBP ES (d)", "setting": "[1]", "value": 1.91},
      {"measurement": "RTFLP ES (d)", "setting": "[1]", "value": 1.52},
      {"measurement": "1RMBP Δ (%)", "setting": "ITT analysis", "value": 21, "unit": "%"},
      {"measurement": "1RMLP Δ (%)", "setting": "ITT analysis", "value": 57, "unit": "%"},
      {"measurement": "RTFBP Δ (%)", "setting": "ITT analysis", "value": 68, "unit": "%"},
      {"measurement": "RTFLP Δ (%)", "setting": "ITT analysis", "value": 145, "unit": "%"},
      {"measurement": "RTFBP (reps) Week 4", "setting": "ITT analysis", "value": "20.0 ± 1.6", "unit": "reps"},
      {"measurement": "RTFBP (reps) Week 8", "setting": "ITT analysis", "value": "24.9 ± 1.8", "unit": "reps"},
      {"measurement": "RTFLP (reps) Week 8", "setting": "ITT analysis", "value": "38.0 ± 5.4", "unit": "reps"},
      {"measurement": "1RMBP (kg) Δ", "setting": "ITT analysis", "value": 8, "unit": "kg"},
      {"measurement": "1RMLP (kg) Δ", "setting": "ITT analysis", "value": 75, "unit": "kg"},
      {"measurement": "RTFBP (reps) Δ", "setting": "ITT analysis", "value": 10, "unit": "reps"},
      {"measurement": "RTFLP (reps) Δ", "setting": "ITT analysis", "value": 23, "unit": "reps"},
      {"measurement": "Average ES for muscular endurance (RTFLP and RTFBP)", "setting": "PP analysis only, vs 2.3 in CD", "value": 1.5},
      {"measurement": "1RMBP (kg) Week 4", "setting": "PP analysis", "value": "43 ± 4", "unit": "kg"},
      {"measurement": "1RMBP (kg) Week 8", "setting": "PP analysis", "value": "48 ± 4", "unit": "kg"},
      {"measurement": "1RMLP (kg) Week 8", "setting": "PP analysis", "value": "220 ± 19", "unit": "kg"},
      {"measurement": "1RMBP ES (d)", "setting": "[2]", "value": 0.76},
      {"measurement": "1RMLP ES (d)", "setting": "[2]", "value": 1.80},
      {"measurement": "RTFBP ES (d)", "setting": "[2]", "value": 1.86},
      {"measurement": "RTFLP ES (d)", "setting": "[2]", "value": 1.27},
      {"measurement": "1RMBP Δ (%)", "setting": "PP analysis", "value": 20, "unit": "%"},
      {"measurement": "1RMLP Δ (%)", "setting": "PP analysis", "value": 51, "unit": "%"},
      {"measurement": "RTFBP Δ (%)", "setting": "PP analysis", "value": 79, "unit": "%"},
      {"measurement": "RTFLP Δ (%)", "setting": "PP analysis", "value": 94, "unit": "%"},
      {"measurement": "RTFBP (reps) Week 4", "setting": "PP analysis", "value": "20 ± 2", "unit": "reps"},
      {"measurement": "RTFBP (reps) Week 8", "setting": "PP analysis", "value": "25 ± 3", "unit": "reps"},
      {"measurement": "RTFLP (reps) Week 8", "setting": "PP analysis", "value": "31 ± 6", "unit": "reps"},
      {"measurement": "1RMBP (kg) Δ", "setting": "PP analysis", "value": 8, "unit": "kg"},
      {"measurement": "1RMLP (kg) Δ", "setting": "PP analysis", "value": 74, "unit": "kg"},
      {"measurement": "RTFBP (reps) Δ", "setting": "PP analysis", "value": 11, "unit": "reps"},
      {"measurement": "RTFLP (reps) Δ", "setting": "PP analysis", "value": 15, "unit": "reps"}
    ]}
  ]
}
